In the supplement of paper PMC4862054:

Columns and labels:
Settings in all cases: incubation time: 72 h
HCC1937 = test: normalised response (% of control), CellTiter-Glo; higher = more viable cells (100 = DMSO, 0 = benzethonium chloride kill control)
Procedure, shortened: (§1)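 A 20 µl suspension of breast cancer cells was seeded into each well of 384-well plates containing compound at 5 concentrations in 10-fold steps over a compound-specific 10,000-fold range. After 72 h incubation, CellTox Green fluorescence (485/520 nm) was read first, and CellTiter-Glo luminescence was read after 10 min at room temperature. Each plate was normalised against 0.1 % DMSO (100) and a positive kill control (0), and each value is the normalised signal at one concentration.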

MFM-223 = test: as above
Procedure, shortened: as §1

CAL-120 [1] = test: as above
Procedure, shortened: as §1

CAL-85-1 = test: as above
Procedure, shortened: as §1

HDQ-P1 [2] = test: as above
Procedure, shortened: as §1

CAL-51 [3] = test: as above
Procedure, shortened: as §1

HCC1599 [4] = test: as above
Procedure, shortened: as §1

BT-549 [5] = test: as above
Procedure, shortened: as §1

SK-BR-3 = test: as above
Procedure, shortened: as §1

MDA-MB-436 [6] = test: as above
Procedure, shortened: as §1

Hs578T [7] = test: as above
Procedure, shortened: as §1

BT-474 [8] = test: as above
Procedure, shortened: as §1

DU-4475 = test: as above
Procedure, shortened: as §1

MDA-MB-231 [9] = test: as above
Procedure, shortened: as §1

MDA-MB-468 [10] = test: as above
Procedure, shortened: as §1

HCC1143 [11] = test: as above
Procedure, shortened: as §1

CAL-148 = test: as above
Procedure, shortened: as §1

MCF-10A [12] = test: as above
Procedure, shortened: as §1

MDA-MB-453 = test: as above
Procedure, shortened: as §1

CAL-120 [13] = test: normalised response (% of control), CellTox Green; higher = less cell death (100 = DMSO, 0 = benzethonium chloride kill control)
Procedure, shortened: as §1

HDQ-P1 [14] = test: as above
Procedure, shortened: as §1

CAL-51 [15] = test: as above
Procedure, shortened: as §1

HCC1599 [16] = test: as above
Procedure, shortened: as §1

BT-549 [17] = test: as above
Procedure, shortened: as §1

MDA-MB-436 [18] = test: as above
Procedure, shortened: as §1

Hs578T [19] = test: as above
Procedure, shortened: as §1

BT-474 [20] = test: as above
Procedure, shortened: as §1

MDA-MB-231 [21] = test: as above
Procedure, shortened: as §1

MDA-MB-468 [22] = test: as above
Procedure, shortened: as §1

HCC1143 [23] = test: as above
Procedure, shortened: as §1

MCF-10A [24] = test: as above
Procedure, shortened: as §1

SMILES | normalised response (HCC1937) [%] | normalised response (MFM-223) [%] | normalised response (CAL-120 [1]) [%] | normalised response (CAL-85-1) [%] | normalised response (HDQ-P1 [2]) [%] | normalised response (CAL-51 [3]) [%] | normalised response (HCC1599 [4]) [%] | normalised response (BT-549 [5]) [%] | normalised response (SK-BR-3) [%] | normalised response (MDA-MB-436 [6]) [%] | normalised response (Hs578T [7]) [%] | normalised response (BT-474 [8]) [%] | normalised response (DU-4475) [%] | normalised response (MDA-MB-231 [9]) [%] | normalised response (MDA-MB-468 [10]) [%] | normalised response (HCC1143 [11]) [%] | normalised response (CAL-148) [%] | normalised response (MCF-10A [12]) [%] | normalised response (MDA-MB-453) [%] | normalised response (CAL-120 [13]) [%] | normalised response (HDQ-P1 [14]) [%] | normalised response (CAL-51 [15]) [%] | normalised response (HCC1599 [16]) [%] | normalised response (BT-549 [17]) [%] | normalised response (MDA-MB-436 [18]) [%] | normalised response (Hs578T [19]) [%] | normalised response (BT-474 [20]) [%] | normalised response (MDA-MB-231 [21]) [%] | normalised response (MDA-MB-468 [22]) [%] | normalised response (HCC1143 [23]) [%] | normalised response (MCF-10A [24]) [%]
NC1(c2ccc(-c3nc4ccn5c(=O)[nH]nc5c4cc3-c3ccccc3)cc2)CCC1 [MK-2206] (1000 nM) | 86 | 46.9 | 92.5 | 86.1 | 81.4 | 84.2 | 72.6 | 69.3 | 52.1 | 98.2 | 87.2 | 95.4 | 87.3 | 86.1 | 83 | 84 | 59.7 | 83.3 | 36.6 | 97.8 | 109 | 98.1 | 117 | 122 | 112 | 82.1 | 99.2 | 106 | 147 | 131 | 104
O=C(c1cc(Cc2n[nH]c(=O)c3ccccc23)ccc1F)N1CCN(C(=O)C2CC2)CC1 [Olaparib] (10000 nM) | 91.6 | 88.5 | 82.3 | 87.5 | 87.8 | 66.1 | 95.3 | 78.1 | 78.7 | 62.2 | 84.6 | 67.5 | 85.7 | 77.2 | 69.5 | 87.3 | 64.6 | 92.8 | 144 | 94.8 | – | 44.8 | 99.2 | 102 | 44 | 96.5 | 96.4 | 35.9 | 112 | 94.2 | 94.8
COc1cc2c(N3CCN(C(=O)Nc4ccc(OC(C)C)cc4)CC3)ncnc2cc1OCCCN1CCCCC1 [Tandutinib] (1000 nM) | 100 | 98.8 | 106 | 98 | 99.1 | 117 | 106 | 102 | 99 | 109 | 92.3 | 97.7 | 97.7 | 106 | 99.7 | 95.7 | 97.8 | 87 | 99.1 | 96.2 | 97.1 | 98.5 | 100 | 108 | 86.9 | 122 | 100 | 99.1 | 120 | 114 | 93.5
C[C@@H](C(=O)O)c1ccc(-c2ccccc2)c(F)c1 [Tarenflurbil] (10000 nM) | 96.9 | 92.8 | 104 | 98.8 | 98.5 | 120 | 92.4 | 99 | 93.3 | 108 | 97.5 | 95.2 | 96.7 | 98.7 | 91.5 | 98.7 | 88.3 | 99.4 | 93.7 | 91.1 | 110 | 113 | 102 | 101 | 90 | – | 88.4 | 99.9 | 153 | 121 | –
